Series [1] relates to human Jurkat T cells [Human Jurkat T세포]. Put plainly: Combination of Julibroside III and doxorubicin: cytotoxicity (MTT assay, 48 h) and FIC in Jurkat T cells. It is filed as cell-based. For orientation: Tetrazolium assays rely on reduction of a dye to a coloured formazan, in cell work by metabolically active cells.
Series [2] concerns mouse liver or kidney [마우스의 간이나 신장]. Description: Safety in mice: histological signs of toxicity in liver or kidney (in vivo sarcoma experiment). The conditions noted are these: up to 100mg/kg.
The mark [3] stands for this setting: doxorubicin and Julibroside III used in combination.

`COc1cccc2c1C(=O)c1c(O)c3c(c(O)c1C2=O)C[C@@](O)(C(=O)CO)C[C@@H]3O[C@H]1C[C@H](N)[C@H](O)[C@H](C)O1` [독소루비신, reference compound]: the concentration for half-maximal inhibition (IC50) in series [1] (setting [3]) was 0.16 µg/mL; in series [1] (treated alone) it was 0.31 µg/mL.

In the case of `C=C[C@](C)(CC/C=C(\C)C(=O)O[C@H]1[C@H](O)[C@@H](O)[C@H](O[C@](C)(C=C)CC/C=C(\C)C(=O)O[C@H]2C[C@]3(C(=O)O[C@@H]4O[C@H](CO)[C@@H](O)[C@H](O)[C@H]4O[C@@H]4O[C@@H](C)[C@H](O[C@@H]5O[C@@H](CO)[C@H](O)[C@H]5O)[C@@H](O[C@@H]5O[C@H](CO)[C@@H](O)[C@H](O)[C@H]5O)[C@H]4O)[C@H](O)C[C@]4(C)C(=CC[C@@H]5[C@@]6(C)CC[C@H](O[C@@H]7O[C@H](CO[C@@H]8O[C@H](C)[C@H](O)[C@H](O)[C@H]8O[C@@H]8OC[C@@H](O)[C@H](O)[C@H]8O)[C@@H](O)[C@H](O)[C@H]7NC(C)=O)C(C)(C)[C@@H]6CC[C@]54C)[C@@H]3CC2(C)C)O[C@@H]1C)O[C@@H]1O[C@H](C)[C@@H](O)[C@H](O)[C@H]1O` [Julibroside III], the 50% inhibitory concentration (IC50) in series [1] (setting [3]) stood at 0.63 µg/mL; in series [1] (treated alone) it was 2.5 µg/mL. In addition, in series [2], the “histological signs of toxicity in liver or kidney” value was “징후가 전혀 없음”.

As a reminder, the IC50 is the concentration that inhibits the measured activity by half.

(Values after patent publication KR20120090118A, “자귀나무 추출물을 포함하는 항암 또는 항암 보조용 조성물” (학교법인 동의학원, priority 2010, dated 2012).)
